This is an account of results in patent US20250059215A1, “Trifluoroborate (BF3) Compositions For Use In Boron Neutron Capture Therapy and Methods Thereof” (TAE Life Sciences LLC, priority 2023, published 2025).

The test system of assay [1] is FaDu cells. Kind of assay: Uptake of boron compounds in FaDu cells in vitro (Example 7). Format: cell-based. To be noted: 2.5 mM in HBSS, two (2) hrs; for uptake (boron) in FaDu cells: 37° C., boron by ICP-OES, FaDu compared with U343MG. The protocol: (§1) In this experiment, the uptake of BPA, FBH FBF, and LBH was carried out to determine which compounds show greater uptake FaDu and U343MG cells. The following protocols were used. Briefly, two (2) assays were performed, one using FaDu cells and the other using U343MG cells. FaDu and U343MG cells were harvested and washed with PBS twice. The count was adjusted to 2 million/ml in HBSS. Boron compounds were added to cells at the final concentration of 2.5 mM in HBSS and the cells were incubated at 37° C., in a humidified 5% CO2 atmosphere for two (2) hrs. with shaking. Following a two (2) hour incubation, cells were harvested and washed twice with ice cold PBS. Cells were then suspended in 1 ml ice cold PBS and a portion (50 μl) was lysed in RIPA buffer and protein content determined by BCA assay. The remaining portion (950 μl) was subjected to nitric acid lysis (66.7% acid at 80° C.). Boron measurements were carried out using ICP-OES. Boronophenylalanine (as fructose solution) was used as a control.

The next assay concerns U343MG cells. Kind of assay: Uptake of boron compounds in U343MG cells in vitro (Example 7). Format: cell-based. The note with it: 2.5 mM in HBSS, two (2) hrs; for uptake (boron) in U343MG cells: 37° C., boron by ICP-OES. The method, then: as §1
The next assay relates to intracranial tumor. The note with it: BNCT, beam directed to surgically exposed intracranial tumor, Japan 1968; cited from earlier work.
In assay [2] the test system is FaDu cells. Kind of assay: Uptake of boron compounds in FaDu cells in vitro (Example 6). It is filed as cell-based. To be noted: 2.5 mM in HBSS, 37° C., two (2) hrs, boron by ICP-OES; compared with BPA (fructose solution). The protocol:
as §1, with “The” for “In this experiment, the uptake of BPA, FBH FBF, and LBH was carried out to determine which compounds show greater uptake FaDu and U343MG cells. The”, “Briefly,” for “Briefly, two (2) assays were performed, one using”, “FaDu” for “FaDu cells and the other using U343MG cells. FaDu and U343MG”

As to `N[C@@H](Cc1ccccc1)B(O)O` [FBH, L-phenylalanine boronic acid], the “uptake (boron) in FaDu cells” value in the assay with FaDu cells [1] is “slightly lower uptake”. Also, in the assay on U343MG cells, the “uptake (boron) in U343MG cells” value was “sufficient level uptake”.
Take un-decahydrododecaborane thiol [BSH]: in the assay with intracranial tumor, the 5-year survival rate was 58%.
`CC(C)C[C@H](N)B(O)O` [LBH, L-leucine boronic acid]: the “uptake (boron) in FaDu cells” value in the assay on FaDu cells [2] was “lower”; with FaDu cells [1], “slightly lower uptake”. In the assay on U343MG cells, the “uptake (boron) in U343MG cells” value is given as “sufficient level uptake”.
As to `N[C@@H](Cc1ccc(B(O)O)cc1)C(=O)O` [BPA, 4-Borono-L-phenylalanine, reference compound], the “uptake (boron) in FaDu cells” value in the assay with FaDu cells [1] is on record as “slightly lower uptake”. In the assay with U343MG cells, the “uptake (boron) in U343MG cells” value is “sufficient level uptake”.
As for `N[C@@H](Cc1ccccc1)[B-](F)(F)F.[K+]` [FBF, [(1R)-1-amino-2-phenylethyl]trifluoroboranuide], the “uptake (boron) in FaDu cells” value with FaDu cells [1] is “slightly lower uptake”. Further, the “uptake relative to the other compounds, FaDu cells” value in the assay on FaDu cells [1] (versus BPA, FBH, LBH) is on record as “marginally greater uptake than the other compounds”. Besides, the “uptake (boron) in U343MG cells” value with U343MG cells is “sufficient level uptake”. For the same molecule, in the assay with U343MG cells (versus BPA, FBH, LBH), the “uptake relative to the other compounds, U343MG cells” value is recorded as “marginally greater uptake than the other compounds”.
